Type in all cases: cell-based
Test [1] has as its system A375 cells. The test can be described thus: MTT cell viability assay, A375. The settings on record: 72 h; for Effect on cell viability at single concentration: A375, 25 μM, MTT; for IC50: Homo sapiens, A-375, A375, MTT. How it is done:
(§1) A375, MRC-5, and HaCaT cell lines were obtained from the American Type Culture Collection (ATCC). 518A2 cell line was kindly provided by Dr. […]ć. All cell lines were cultured in RPMI 1640 medium supplemented with 2 g/L glucose, 10% fetal bovine serum (FBS), and antibiotics. […] Cell viability was assessed using the MTT assay (Sigma Aldrich, #M5655). […] After 72 h of incubation, absorbance was measured at 570 nm using a Multiskan SkyHigh microplate reader (Thermo Fisher Scientific, Helsinki, Finland). Values were corrected by subtracting the absorbance measured in wells containing cell-free medium with tested compounds.

In test [2] the test system is 518A2 cells. Description: MTT cell viability assay, 518A2. The settings on record: Homo sapiens; 518A2, MTT, 72 h. On the procedure:
as §1

Test [3] concerns MRC-5 (fetal fibroblasts). The test can be described thus: MTT cell viability assay, MRC-5. Particulars: Homo sapiens, MRC5; MRC-5, MTT, 72 h. On the procedure: as §1
Test [4] concerns A375 cells. Description: Cell cycle distribution (PI, flow cytometry), A375. The settings on record: A375, 25 µM, 72 h. On the procedure: (§2) A375 and A375R cells were seeded in 6-well plates at a density of 150,000 cells per well. On the following day, the cells were treated with 25 µM concentrations of compounds 1, 3, and 8, as well as telmisartan. After 72 h of incubation, the cells were harvested using trypsin, washed with phosphate-buffered saline (PBS), fixed in ethanol, and stored at −20 °C until analysis. Ethanol-fixed cells were treated with RNase A (1 mg/mL) and stained with propidium iodide (PI; 400 µg/mL). A total of 20,000 events were recorded per sample. Quantitative analysis of the cell cycle phase distribution was performed by flow cytometry using a FACSCalibur flow cytometer (Becton Dickinson, San Jose, CA, USA) and BD CellQuest Pro Version 5.2.1 software. Experiment was performed three times. Cells under treatment were compared to controls for each cell phase separately with one-way ANOVA and Dunnett’s multiple comparison tests. p < 0.05 was considered statistically significant.

In test [5] the test system is A375R cells. Description: Cell cycle distribution (PI, flow cytometry), A375R. Particulars: 25 µM, 72 h. On the procedure: as §2

Regarding `CCCc1nc2c(C)cc(-c3nc4ccccc4n3C)cc2n1Cc1ccc(-c2ccccc2C(=O)NC(Cc2ccc(O)cc2)C(=O)O)cc1` (stereo not drawn) [compound 3, 2-{[4′-(1,7′-dimethyl-2′-propyl-1H-[2,5′]bibenzoimidazolyl-3′-ylmethyl)-biphenyl-2-carbonyl]-amino}-3-(4-hydroxy-phenyl)-propionic acid], the “Effect on cell viability at single concentration” value in test [1] is given as “significant reductions in cell viability”. In addition, the IC50 is 32.1 ± 2.38 µM in test [1], 31 ± 2.38 µM in test [2] and 50.74 ± 0.28 µM in test [3]. For the same compound, the Cell cycle distribution entry in test [4] is listed as “increased accumulation of cells in the subG1 phase, albeit not statistically significant”; in test [5], “cell cycle profile comparable to that of the untreated control cells”.
Take `CCCc1nc2c(C)cc(-c3nc4ccccc4n3C)cc2n1Cc1ccc(-c2ccccc2C(=O)NC(Cc2ccccc2)C(=O)O)cc1` (stereo not drawn) [compound 8, 2-{[4′-(1,7′-dimethyl-2′-propyl-1H-[2,5′]bibenzoimidazolyl-3′-ylmethyl)-biphenyl-2-carbonyl]-amino}-3-phenyl-propionic acid]: the “Effect on cell viability at single concentration” value in test [1] is “significant reductions in cell viability”. Also, the figures for the IC50 in test [1], in test [2] and in test [3] were 27.2 ± 0.58 µM, 28.4 ± 2.66 µM and 31.5 ± 5.87 µM, respectively. Moreover, the Cell cycle distribution result in test [4] was “increased accumulation of cells in the subG1 phase, albeit not statistically significant”; in test [5] it was “cell accumulation in the G0/G1 phase”.

The values are drawn from PMC12787000 (Molecules, 2025).
